Experimental data published in patent US6448283B1, “Methods for preventing/treating damage to sensory hair cells and cochlear neurons” (Cephalon, Inc., priority 1998, dated 2002).
Where “and” joins values, the source holds several entries; their conditions need not be identical. Identical values can stand only once.

Assays:
[1] = system: pigmented guinea pigs exposed to traumatic octave band noise; assay: ABR hearing thresholds after noise trauma (Example 1); type: in vivo; conditions: guinea pig; 1 mg/kg s.c. daily from 24 h before noise to day 21; noise 4.0 kHz 125 dB SPL 105 min; across test frequencies; 21 days after exposure
Description: Baseline hearing of 8 pigmented guinea pigs (200-300 g) was tested by ABR as described below. ABR is a measure of hearing function. Four animals were treated with daily subcutaneous (s.c.) injections of the compound of Formula II, 1 mg/kg, starting 24 hours prior to noise trauma and lasting until 21 days after exposure to the noise trauma. Four animals served as controls and received only vehicle (the fourth animal died under anaesthesia). All the animals were exposed to traumatic octave band noise, center frequency 4.0 kHz, 125 dB SPL (sound pressure level) for 105 min.
ABR thresholds were again determined 21 days after exposure to the noise trauma. ABR thresholds were measured with System II hardware and BioSig software (Tucker Davis Technology). Stimulus with 1 ms cos2 rise and fall and 18 ms plateau was presented with Beyer earphone connected to speculum (placed in the meatus of the external ear canal) at a rate of 20 Hz. Stimulus was calibrated against a Bruel & Kjaer 4134 microphone connected to a Bruel & Kjaer 2203 sound level meter. A Grass P15 preamplifier and custom amplifier provided gain of 10^5 and filtering of 0.3 to 3.0 kHz. Two responses were obtained at each intensity level. Thresholds were determined for the frequencies 2, 4, 8, 16 and 32 kHz from a set of responses at varying intensities with 5 dB intervals and 1000 sweeps near threshold.

[2] = system: vestibular hair cells (ampullary cristae); assay: Hair cell counts in ampullary cristae after gentamicin treatment; type: in vivo, guinea pig
Description: Two experimental groups were formed. Group 1 guinea pigs served as control and were treated with gentamicin only. The animals were injected s.c. with gentamicin at 120 mg/kg body weight, once daily for 14 days. Three guinea pigs (yielding a total of 6 inner ears) were included in this group. The animals were decapitated 30 days after the start of the injections.
Group 2 guinea pigs were treated with gentamicin plus Formula II. The animals were injected s.c. with GM at 120 mg/kg body weight, plus Formula II at 1 mg/kg, once daily for 14 days. Formula II treatment started 1 day before GM injections. Formula II treatment was continued for 28 or 29 days. Four guinea pigs (8 inner ears) were included in this group. The animals were decapitated 30 days after the start of GM injections.
Guinea pigs were decapitated under deep anaesthesia and the inner ears were perilymphatically fixed and immersed with 2.5% glutaraldehyde in 0.1 M phosphate buffer (pH 7.4), postfixed with 1% osmium tetroxide, and embedded in Epon. Cochleas were processed for cytocochleograms (Ylikoski, Acta Otolaryngol (Stockh) Suppl 326:5-20, 1975). The separately dissected and Epon-embedded vestibular organs were cut for 1 μm-thick sections. Every 25th section was collected onto slides and stained with 1% toluidine blue. […] Two control (GM-treated) and 3 Formula II plus GM-treated ampullae were used for analysis. The presence of cell nuclei in the sensory layer (upper half) of the sensory epithelium was regarded as the presence of hair cells. Supporting cell nuclei were clearly distinguished from hair cells by their position (lower part) in the epithelium and by toluidine blue that stains the hair cells weaker than the supporting cells. Hair cell loss was measured by comparing the number of hair cell nuclei in the sensory layer to the number of […].

[3] = system: hair cells of cochlear explants; assay: TUNEL staining of hair cells in neomycin-exposed cochlear explants; type: cell-based, rat; conditions: 500 nM Formula II coincubated with neomycin; n=5 explants
Description: Six, 12 and 24 hr after adding 100 μM neomycin to the medium, cochlear cultures were fixed with 4% paraformaldehyde in PBS for 30 min. The specimens were prepared for 5 um-thick paraffin sections. They were stained with a TUNEL-kit, mounted in Vectashield containing DAPI nuclear counterstain (Vector, Burlingame, Calif.), and viewed under an Olympus Provis microscope (Tokyo, Japan) using epifluorescence. In addition to TUNEL-staining, DNA fragmentation was verified under UV illumination using DAPI counterstain.

[4] = system: noise-exposed guinea pigs; assay: ABR threshold shifts after noise exposure (Example 2); type: in vivo, guinea pig; conditions: day 6 postexposure; n=11; P<0.05 at 4 and 8 kHz, P<0.01 at 16 kHz
Description: Adult Dunkin-Hartley female guinea pigs (weight 300-500 g) were exposed, 4 animals at a time, to octave band noise, with a center frequency of 4.0 kHz, 120 dB SPL for 6 hr as described in Example 1. Fragmented hair cell nuclei were assessed from noise-exposed cochleas immediately and 1, 2, 4, 6, 8 and 14 days after noise exposure. Noise-exposed and nonexposed guinea pigs were decapitated under deep anesthesia and inner ears were perilymphatically perfused with 4% paraformaldehyde in PBS, and processed for […] paraffin-embedded sections (Ylikoski et al., Hear Res 65:69-78, 1993; Ylikoski et al., Hear Res 124:17-26, 1998). TUNEL-staining was performed as described below. DNA fragmentation was also verified by DAPI nuclear counterstain (see below). Further, trauma-induced nuclear fragmentation was verified by morphological analysis of contralateral cochleas that were perilymphatically fixed with 2.5% glutaraldehyde in 0.1M phosphate buffer, pH 7.4, postfixed with 1% osmium tetroxide, embedded in epoxy resin, and prepared for surface preparations (see below). […]
Auditory brainstem responses (ABRs) were measured 2 days before noise exposure, and 2, 6 and 14 days after exposure under anesthesia (xylazine 10 mg/kg and ketamine 40 mg/kg). […] Hearing threshold was determined from a set of responses at varying intensities. […]

CCSCc1ccc2c(c1)c1c3c(c4c5cc(CSCC)ccc5n5c4c1n2C1C[C@](O)(C(=O)OC)[C@]5(C)O1)CNC3=O [Formula II]
ABR threshold shift [1]: 20-40 dB
Total number of hair cells ([2]; GM + Formula II, single ampulla, all sections counted): 518 and 328 and 620
Hair cells per frame ([2]; GM + Formula II, single ampulla, decimal comma): 1,9 and 2,2
protective effect in the ampullae ([2]; gentamicin 120 mg/kg plus Formula II 1 mg/kg, relative hair cell loss, n=3 ampullae): 70%
TUNEL-labeling in hair cells [3]: prevented
ABR threshold shifts versus noise-exposed control group [4]: significantly less
